The record followed here is ChEMBL document CHEMBL5126611, “Design, Synthesis, and Biological Evaluations of Pyridyl 4,5,6,7-Tetrahydro-4,7-Methanobenzo[d]isoxazoles as Potent and Selective Inhibitors of 11β-Hydroxylase” (J Med Chem, 2022).

For data set [1], the target named is T1, Cytochrome P450 11B2, mitochondrial (Homo sapiens, UniProt P19099).
T1 sequence (P19099 whole entry): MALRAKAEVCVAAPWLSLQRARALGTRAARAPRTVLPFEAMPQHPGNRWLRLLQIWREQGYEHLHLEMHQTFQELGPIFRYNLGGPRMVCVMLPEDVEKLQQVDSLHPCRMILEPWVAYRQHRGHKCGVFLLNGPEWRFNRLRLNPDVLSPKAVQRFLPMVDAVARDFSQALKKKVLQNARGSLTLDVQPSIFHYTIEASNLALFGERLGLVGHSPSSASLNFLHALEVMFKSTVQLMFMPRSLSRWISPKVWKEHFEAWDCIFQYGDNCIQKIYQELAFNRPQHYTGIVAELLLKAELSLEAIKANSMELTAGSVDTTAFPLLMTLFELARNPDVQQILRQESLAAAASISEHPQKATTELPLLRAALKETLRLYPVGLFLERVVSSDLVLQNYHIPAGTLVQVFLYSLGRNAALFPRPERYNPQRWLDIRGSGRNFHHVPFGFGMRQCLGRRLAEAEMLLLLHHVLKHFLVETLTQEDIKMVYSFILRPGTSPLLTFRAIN
The data set can be described thus: Inhibition of human CYP11B2 expressed in Chinese hamster V79 MZh cells using [14C]-deoxycorticosteron as substrate measured after 6 hrs by phosphoimager analysis. Format: ADME, cell-based.

A short description of data set [2]: Selectivity ratio of IC50 for inhibition of human CYP11B2 to IC50 for inhibition of human CYP11B1. Format: ADME.
The target of data set [3] is T2, Cytochrome P450 11B1, mitochondrial (Homo sapiens, UniProt P15538).
T2 sequence (P15538 whole entry): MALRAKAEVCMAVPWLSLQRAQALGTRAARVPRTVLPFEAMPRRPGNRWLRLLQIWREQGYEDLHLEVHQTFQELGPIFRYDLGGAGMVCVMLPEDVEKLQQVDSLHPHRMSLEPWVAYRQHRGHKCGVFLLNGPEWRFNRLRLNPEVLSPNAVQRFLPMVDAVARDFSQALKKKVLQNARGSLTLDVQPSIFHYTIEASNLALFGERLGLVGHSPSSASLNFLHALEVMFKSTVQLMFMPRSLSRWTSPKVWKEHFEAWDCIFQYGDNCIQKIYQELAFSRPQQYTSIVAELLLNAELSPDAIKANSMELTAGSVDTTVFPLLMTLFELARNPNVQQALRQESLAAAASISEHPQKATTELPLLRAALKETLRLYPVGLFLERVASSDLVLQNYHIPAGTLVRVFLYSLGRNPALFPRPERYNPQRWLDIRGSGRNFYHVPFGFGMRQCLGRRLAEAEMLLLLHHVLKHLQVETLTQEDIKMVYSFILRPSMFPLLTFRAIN
Description: Inhibition of human CYP11B1 expressed in Chinese hamster V79 MZh cells using [14C]-deoxycorticosteron as substrate measured after 6 hrs by phosphoimager analysis. Format: ADME, cell-based.

By IC50 is commonly meant the midpoint of a concentration-inhibition curve. High values mean weaker potency in that assay, low ones greater potency in that assay. Consider `O=C(Nc1ccccc1F)[C@]12ON=C(c3cccnc3)[C@H]1[C@@H]1CC[C@H]2C1`, for which the IC50 in data set [1] is 5750 nM; in data set [3], 135 nM. Besides, in data set [2], the “Ratio IC50” value came out at 43.
Take `O=C(Nc1ccc2[nH]ncc2c1)[C@]12ON=C(c3cncc(Br)c3)[C@H]1[C@@H]1CC[C@H]2C1`: the results for the IC50 in data set [1] and in data set [3] were 918 nM and 31 nM, respectively. In addition, in data set [2], the “Ratio IC50” value came out at 30.
Regarding `O=C(Nc1ccc(F)cc1)[C@]12ON=C(c3cccnc3)[C@H]1[C@@H]1CC[C@H]2C1`, the IC50 came to 2990 nM in data set [1] and 57 nM in data set [3]. Further, in data set [2], the “Ratio IC50” value is on record as 53.
As for `CN(C(=O)[C@]12ON=C(c3cccnc3)[C@H]1[C@@H]1CC[C@H]2C1)c1ccccc1`, the half-maximal inhibitory concentration (IC50) in data set [1] was found to be 4250 nM; in data set [3] it was 183 nM. Also, the “Ratio IC50” value in data set [2] stood at 23.
The corresponding values for `O=C(Nc1cnc2[nH]ccc2c1)[C@]12ON=C(c3cccnc3)[C@H]1[C@@H]1CC[C@H]2C1` are 1650 nM, 17 nM and 97.
Consider `O=C(Nc1cccc(Cl)c1Cl)[C@]12ON=C(c3cccnc3)[C@H]1[C@@H]1CC[C@H]2C1`, for which the IC50 in data set [1] was 5120 nM; in data set [3], 157 nM. Further, in data set [2], the “Ratio IC50” value worked out at 33.
Turning to `Cc1cccc(NC(=O)[C@]23ON=C(c4cccnc4)[C@H]2[C@@H]2CC[C@H]3C2)c1`, the IC50 in data set [1] was found to be 9640 nM; in data set [3] it was 153 nM. In addition, the “Ratio IC50” value in data set [2] was found to be 63.
For the compound `N#Cc1cccc(NC(=O)[C@]23ON=C(c4cccnc4)[C@H]2[C@@H]2CC[C@H]3C2)c1`, the IC50 in data set [1] turned out to be 2180 nM; in data set [3], 35 nM. Further, the “Ratio IC50” value in data set [2] is 62.
For the compound `O=C(Nc1ccc2[nH]ncc2c1)[C@]12ON=C(c3cncc(-c4cccc(F)c4)c3)[C@H]1[C@@H]1CC[C@H]2C1`, the IC50 in data set [1] came out at 412 nM; in data set [3], 8 nM. In data set [2], the “Ratio IC50” value came to 52.
Turning to `O=C(Nc1cccc(F)c1)[C@]12ON=C(c3cccnc3)[C@H]1[C@@H]1CC[C@H]2C1`, the half-maximal inhibitory concentration (IC50) in data set [1] was found to be 2840 nM; in data set [3], 49 nM. Moreover, the “Ratio IC50” value in data set [2] was 58.
As to `O=C(Nc1ccc2[nH]ncc2c1)[C@]12ON=C(c3cncc(-c4ccc(F)cc4)c3)[C@H]1[C@@H]1CC[C@H]2C1`, the IC50 is 113 nM in data set [1] and 6 nM in data set [3]. The “Ratio IC50” value in data set [2] was 19.
On to `O=C(Nc1nc2ccccc2[nH]1)[C@]12ON=C(c3cccnc3)[C@H]1[C@@H]1CC[C@H]2C1`, for which the IC50 in data set [1] came to 2940 nM; in data set [3] it was 106 nM. The “Ratio IC50” value in data set [2] stood at 28.
In the case of `O=C(Nc1cccc(F)n1)[C@]12ON=C(c3cccnc3)[C@H]1[C@@H]1CC[C@H]2C1`, the results for the 50% inhibitory concentration (IC50) in data set [1] and in data set [3] were 4010 nM and 86 nM, respectively. In data set [2], the “Ratio IC50” value came to 47.
Consider `COc1cccc(-c2cncc(C3=NO[C@]4(C(=O)Nc5ccc6[nH]ncc6c5)[C@H]5CC[C@H](C5)[C@H]34)c2)c1`, for which the IC50 in data set [1] amounted to 477 nM; in data set [3], 15 nM. Also, the “Ratio IC50” value in data set [2] is recorded as 32.
Turning to `N#Cc1ccc(NC(=O)[C@]23ON=C(c4cccnc4)[C@H]2[C@@H]2CC[C@H]3C2)cc1`, the concentration for half-maximal inhibition (IC50) in data set [1] is 3800 nM; in data set [3], 46 nM. The “Ratio IC50” value in data set [2] was found to be 83.
Taken in the same sequence, the figures for `Cc1ccncc1NC(=O)[C@]12ON=C(c3cccnc3)[C@H]1[C@@H]1CC[C@H]2C1` were 4450 nM, 115 nM and 39.
With `Nc1ccccc1NC(=O)[C@]12ON=C(c3cccnc3)[C@H]1[C@@H]1CC[C@H]2C1`, the IC50 was determined as 4310 nM in data set [1] and 138 nM in data set [3]. In addition, the “Ratio IC50” value in data set [2] is 31.
Take `Cc1ccc(NC(=O)[C@]23ON=C(c4cccnc4)[C@H]2[C@@H]2CC[C@H]3C2)cc1`: the figures for the 50% inhibitory concentration (IC50) in data set [1] and in data set [3] were 6220 nM and 128 nM, respectively. Further, the “Ratio IC50” value in data set [2] is reported as 49.
On to `O=C(Nc1ccc2[nH]ncc2c1)[C@]12ON=C(c3cncc(-c4ccsc4)c3)[C@H]1[C@@H]1CC[C@H]2C1`, for which the figures for the IC50 in data set [1] and in data set [3] were 1430 nM and 37 nM, respectively. For the same compound, the “Ratio IC50” value in data set [2] is listed as 39.
For the compound `Cc1ccccc1NC(=O)[C@]12ON=C(c3cccnc3)[C@H]1[C@@H]1CC[C@H]2C1`, the IC50 in data set [1] came to 9770 nM; in data set [3], 189 nM. Also, in data set [2], the “Ratio IC50” value was found to be 52.
With `O=C(Nc1ccccc1)[C@]12ON=C(c3cccnc3)[C@H]1[C@@H]1CC[C@H]2C1`, the IC50 in data set [1] was 5940 nM; in data set [3], 167 nM. In addition, in data set [2], the “Ratio IC50” value stood at 36.
Take `O=C(Nc1ccc2[nH]ncc2c1)[C@]12ON=C(c3cncc(-c4ccoc4)c3)[C@H]1[C@@H]1CC[C@H]2C1`: the IC50 in data set [1] was determined as 796 nM; in data set [3] it was 46 nM. The “Ratio IC50” value in data set [2] is listed as 17.
Take `O=C(Nc1ccc(Cl)cc1)[C@]12ON=C(c3cccnc3)[C@H]1[C@@H]1CC[C@H]2C1`: the IC50 worked out at 6720 nM in data set [1] and 83 nM in data set [3]. Further, in data set [2], the “Ratio IC50” value was determined as 81.
With `COc1ccc(NC(=O)[C@]23ON=C(c4cccnc4)[C@H]2[C@@H]2CC[C@H]3C2)cc1`, the IC50 is 4020 nM in data set [1] and 79 nM in data set [3]. Moreover, the “Ratio IC50” value in data set [2] stood at 51.
In the case of `N#Cc1ccc(-c2cncc(C3=NO[C@]4(C(=O)Nc5ccc6[nH]ncc6c5)[C@H]5CC[C@H](C5)[C@H]34)c2)cc1`, the IC50 came to 57 nM in data set [1] and 2 nM in data set [3]. The “Ratio IC50” value in data set [2] is recorded as 28.
With `O=C(Nc1ccc2[nH]ncc2c1)[C@]12ON=C(c3cncc(-c4cccc(C(F)(F)F)c4)c3)[C@H]1[C@@H]1CC[C@H]2C1`, the figures for the concentration for half-maximal inhibition (IC50) in data set [1] and in data set [3] were 398 nM and 17 nM, respectively. The “Ratio IC50” value in data set [2] is reported as 23.
As to `O=C(Nc1ccc([N+](=O)[O-])cc1)[C@]12ON=C(c3cccnc3)[C@H]1[C@@H]1CC[C@H]2C1`, the 50% inhibitory concentration (IC50) in data set [1] came to 5590 nM; in data set [3], 96 nM. Moreover, the “Ratio IC50” value in data set [2] is given as 58.
With `O=C(Nc1cccc(Cl)c1)[C@]12ON=C(c3cccnc3)[C@H]1[C@@H]1CC[C@H]2C1`, the values for the IC50 in data set [1] and in data set [3] were 6670 nM and 97 nM, respectively. In addition, the “Ratio IC50” value in data set [2] came out at 69.
Take `O=C(Nc1ncccn1)[C@]12ON=C(c3cccnc3)[C@H]1[C@@H]1CC[C@H]2C1`: the values for the IC50 in data set [1] and in data set [3] were 7710 nM and 179 nM, respectively. The “Ratio IC50” value in data set [2] is listed as 43.
In the case of `O=C(Nc1ccc2cc[nH]c2c1)[C@]12ON=C(c3cccnc3)[C@H]1[C@@H]1CC[C@H]2C1`, the IC50 in data set [1] was determined as 2070 nM; in data set [3], 25 nM. Further, the “Ratio IC50” value in data set [2] is recorded as 82.
The corresponding values for `O=C(Nc1ccc2[nH]ccc2c1)[C@]12ON=C(c3cccnc3)[C@H]1[C@@H]1CC[C@H]2C1` are 2280 nM, 22 nM and 103.
Regarding `COc1cccc(NC(=O)[C@]23ON=C(c4cccnc4)[C@H]2[C@@H]2CC[C@H]3C2)c1`, the IC50 turned out to be 2390 nM in data set [1] and 32 nM in data set [3]. Further, the “Ratio IC50” value in data set [2] came out at 75.
Take `COc1ccccc1NC(=O)[C@]12ON=C(c3cccnc3)[C@H]1[C@@H]1CC[C@H]2C1`: the IC50 was 5950 nM in data set [1] and 113 nM in data set [3]. Besides, the “Ratio IC50” value in data set [2] came out at 53.
Regarding `N#Cc1cccc(-c2cncc(C3=NO[C@]4(C(=O)Nc5ccc6[nH]ncc6c5)[C@H]5CC[C@H](C5)[C@H]34)c2)c1`, the IC50 turned out to be 329 nM in data set [1] and 12 nM in data set [3]. For the same compound, the “Ratio IC50” value in data set [2] is reported as 27.
Consider `O=C(Nc1cccc([N+](=O)[O-])c1)[C@]12ON=C(c3cccnc3)C1[C@@H]1CCC2C1` (single isomer, unassigned), for which the half-inhibitory concentration (IC50) is 2600 nM in data set [1] and 65 nM in data set [3]. In addition, in data set [2], the “Ratio IC50” value is on record as 41.
